According to article PMC1373645, “Lactate production yield from engineered yeasts is dependent from the host background, the lactate dehydrogenase source and the lactate export” (Microbial Cell Factories, 2006):

Target: T1, bovine Ldh-A (BtLDH) (Bos taurus, UniProt P19858)
T1 construct: gene LDHA; full length, untagged, expressed in S. cerevisiae GRF18U; crude cell extract; homotetramer
Test: LDH activity of crude yeast extract with added lactate (Sigma kit DG1340-UV)
Assay type: biochemical
Conditions: read-out: % inhibition at 10 g/l

- inhibition at 10000 µg/mL: ~40%
SMILES: C[C@H](O)C(=O)O [lactate]
